“Also recorded” adds a separate entry of the source.

The test system of assay [1] is CLN3 knockdown NT2 cells. Put plainly: Cell apoptosis rate in CLN3 knockdown NT2 cells, propidium iodide. Type of assay: cell-based, human. Particulars: GalCer 50 ng/ml, 3 days after transfection. The protocol:
(§1) Cell Culture and Cell Treatment. NT2 neuronal precursor cells (ATCC cat no. CRL 1973) were grown in DMEM supplemented with 1% sodium pyruvate, L-glutamine and antibiotics and incubated in 37 C and 5% CO2 for 3 days.
(§2) siRNA knockdown of CLN3 in NT2 cells. HS1 siRNA ([…]) for CLN3 knockdown was designed using BLOCK-iT RNA™ Designer (Invitrogen). […] siRNA and scrambled universal negative control siRNA oligonucleotides were transfected into wild type NT2 cells using Lipofectamine RNAiMax™ according to manufacturer's protocol. In brief, […] HS1 RNAi duplex or scrambled siRNA universal negative control were diluted in 50 μl DMEM medium without serum. Lipofectamine™ RNAiMAX was mixed gently before use, then 1 μl was diluted in 50 μl DMEM medium. The diluted RNAi duplexes were combined with the diluted Lipofectamine RNAiMAX and incubated for 10 minutes at room temperature. […]
Determination of cell apoptosis rate in CLN3 knockdown NT2 cells. 10^6 cells transfected with CLN3 siRNA or scrambled siRNA, either treated with 50 ng/ml of GalCer (Avanti Polar Lipids, inc.) or solvent, are suspended in 100 μl PBS, incubated with 100 μl/0.5 mg/ml PI, washed, placed on slides and viewed using a fluorescence microscope. […] Cells in three fields of vision were counted. Percentage of red staining-apoptotic cells/total cells was determined.

Assay [2] relates to CLN3-deficient human NT2 neuronal precursor cells. The experiment in a line: Lipid raft GalCer in CLN3-deficient NT2 cells after GalCer supplementation. Type of assay: cell-based. Conditions: exogenous GalCer supplementation.
The next assay concerns the target T1, wild-type CLN3p (Homo sapiens, UniProt Q13286).
T1 construct: expressed in transfected cells; host or cells: fibroblasts overexpressing CLN3p (AC1 cells)
T1 sequence (Q13286 1-438): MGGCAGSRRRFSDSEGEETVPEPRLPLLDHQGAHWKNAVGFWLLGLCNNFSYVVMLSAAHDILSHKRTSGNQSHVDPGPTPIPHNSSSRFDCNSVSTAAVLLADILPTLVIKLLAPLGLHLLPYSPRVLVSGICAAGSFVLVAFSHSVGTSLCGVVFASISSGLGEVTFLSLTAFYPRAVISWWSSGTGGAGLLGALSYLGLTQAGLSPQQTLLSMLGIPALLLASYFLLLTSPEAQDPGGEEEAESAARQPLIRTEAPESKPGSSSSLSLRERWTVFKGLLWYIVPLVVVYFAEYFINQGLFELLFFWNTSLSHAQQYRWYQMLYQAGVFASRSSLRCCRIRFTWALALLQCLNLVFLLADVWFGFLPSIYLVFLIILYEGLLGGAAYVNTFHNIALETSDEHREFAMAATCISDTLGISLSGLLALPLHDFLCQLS
Put plainly: Protein-lipid overlay assay, wild-type CLN3p. It is filed as binding. As for the experimental part:
(§3) Protein-lipid overlay assay. Membrane arrays (SPHINGOSTRIPS (Echelon Research Laboratories, Salt Lake City, Utah), or lipids were spotted on nitrocellulose membranes and dried for at least one hour. Membranes were blocked with 3% (wt/vol) Fatty Acid Free or FFA-BSA (Sigma-Aldrich, St. Louis, Mo.) in Tris-Buffered Saline Tween-20 (TBST) [150 mM NaCl/10 mM Tris.HCl (pH 8.0), and 0.1% (vol/vol) Tween-20] for 1 h at RT. Blocked membranes were incubated for 8 h at 4° C. with 2 mg/ml of total cell lysate.
(§4) Fibroblasts overexpressing CLN3p (AC1 cells) and JNCL fibroblasts were used for the GalCer-CLN3 binding assay. The membranes were then washed five times for 5 min each with TBST. After washing, membranes were incubated with anti-CLN3, CLN1, CLN2, CLN6 or CLN8-antibodies overnight at 1:1000 dilution, followed by additional washing and incubation with horseradish peroxidase-conjugated anti-rabbit IgG goat antibody for 1 h at RT. After a final washing, enhanced chemiluminescence was used to detect binding of NCL proteins to sphingolipids. Intensity values were computed with an ImageJ software program.
Binding of CLN3 to GalCer and sulfatide. Membranes impregnated with sphingolipids were overlaid with protein cell lysates from CLN3-overexpressing and JNCL cells. Anti-CLN3 antibody was used to evaluate binding. […] The signal for GalCer-wild-type CLN3p binding was weaker because the more polar sulfatide competes with the less polar GalCer for binding to wild-type CLN3p.

Assay [3] has as its system CLN3 knockdown NT2 cells. The experiment in a line: Cell proliferation rate in CLN3 knockdown NT2 cells, Trypan blue dye exclusion. It is filed as cell-based, human. Particulars: GalCer 50 ng/ml, 3 days post-transfection. As for the experimental part: as §1
as §2, with “temperature. The RNAi duplex-Lipofectamine™ RNAiMAX complexes were added to cells for a final RNA concentration of 10 nM.” for “temperature.”
Determination of cell proliferation rate in CLN3 knockdown NT2 cells. 4×10^5 cells transfected with CLN3 siRNA or scrambled siRNA, and treated or not treated with 50 ng/ml GalCer, were seeded and counted with Trypan blue dye exclusion. […]
NT2 cell proliferation and apoptosis rates. An equal number of NT2 cells was initially seeded and cell number determined at different time points with Trypan blue dye exclusion. […]

Another assay concerns the target T2, CLN6 protein (Homo sapiens, UniProt Q9NWW5).
T2 construct: endogenous in cells
T2 sequence (Q9NWW5 1-311): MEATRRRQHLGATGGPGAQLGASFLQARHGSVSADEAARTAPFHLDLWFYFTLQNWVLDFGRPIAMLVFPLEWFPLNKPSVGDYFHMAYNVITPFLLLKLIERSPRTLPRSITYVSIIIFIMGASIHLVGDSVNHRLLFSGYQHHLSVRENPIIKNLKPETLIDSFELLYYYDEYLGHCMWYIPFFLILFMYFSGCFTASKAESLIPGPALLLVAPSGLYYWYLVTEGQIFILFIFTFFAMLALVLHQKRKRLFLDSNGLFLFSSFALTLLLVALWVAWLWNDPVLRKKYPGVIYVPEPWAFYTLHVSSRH
The experiment in a line: Protein-lipid overlay assay, CLN6 protein. Type of assay: binding. Particulars: lysates from normal cells, custom made sphingostrips. The protocol:
as §3, §4
CLN1, CLN2, CLN6, CLN8 and CLN9 proteins also bind to lipids. The protein-lipid overlay assay, using custom made sphingostrips, lysates from normal cells and anti-CLN1, anti-CLN2-, anti-CLN6, and anti-CLN8-antibodies, established that CLN6 and CLN8 proteins bind to GalCer, CLN1, CLN2 and CLN6p bind lysophosphatidic acid (LPA) and sulfatide, and CLN8p binds ceramide (FIG. 5).

The test system of assay [4] is galactosylceramide transferase (GCT). Particulars: exogenous supplementation of GalCer; Rusyn E et al., 2008; cited from earlier work.

For the substance galactosylceramide [GalCer], in the assay on CLN3 knockdown NT2 cells [1], the “cell death (apoptosis) of CLN3-deficient NT2 cells” value was “significantly reduces cell death”. In addition, the “GalCer in lipid rafts of CLN3-deficient NT2 cells” value in assay [2] is “normalizes GalCer in lipid rafts”. Besides, the “binding of wild-type CLN3p to membrane spots impregnated with the lipid” value on wild-type CLN3p (lysate of CLN3-overexpressing cells, anti-CLN3 antibody) was “bind strongly”. Further, on wild-type CLN3p (sulfatide omitted, dose dependent), the “binding of CLN3p to GalCer when sulfatide was omitted from the membrane” value is listed as “stronger binding”. Further, the “growth of CLN3-deficient NT2 cells” value in the assay on CLN3 knockdown NT2 cells [3] was “normalized growth; also recorded: corrects growth”. In addition, the “binding of CLN6 protein to lipid” value on CLN6 protein is on record as “bind”. The “growth defect and increased apoptosis of GalCer synthase knockdown lymphoblasts” value in assay [4] is recorded as “remedied”.

The record behind these values is patent publication US8242086B2, “Methods and compositions for treating disorders caused by a deficiency in a gene product of a CLN gene” (Duke University, priority 2008, dated 2012).
